Columns and labels:
[1] = test system: A2780 cell line; assay: MTT cytotoxicity assay; format: cell-based; details: for IC50 A2780: 120 h treatment; for IC50: cisplatin sensitive parent line
Description: (§4) To evaluate the efficacy of the various drugs, cells were seeded in a sterile, 24-well plate and incubated in the presence of the drug for 72 h/120 h at 37° C., 5% CO2. The number of cells alive was quantified using (3-(4,5-dimethylthiazol-2-yl)-2,5 diphenyltetrazolium bromide) (MTT) assay. The cells were incubated for 2 h with MTT, DMSO was added to dissolve the crystals and the plates were measured at 540 nm. Viability (%) graphs were constructed relative to the control of every assay. The data were plotted in a graph, lines connected the points, and the values were determined from the interpolated graph.

[2] = test system: A2780-cisR cell line; assay: MTT cytotoxicity assay; format: cell-based; details: for IC50 A2780-cisR: 120 h treatment; for IC50: cisplatin resistant line; for RF, resistance factor: ratio of IC50 in A2780-cisR to A2780
Description: as §4

[3] = test system: BxPc-3-luc2 cell line; assay: MTT antiproliferative assay; format: cell-based, human
Description: (§1) The antiproliferative activities of the novel compound (free and incorporated in NPs) and OXA were determined in HCT 116-luc2 (human colorectal cancer) and BxPc-3-luc2 (human pancreatic cancer) cell lines by the MTT assay.

[4] = test system: HCT 116-luc2 cell line; assay: MTT antiproliferative assay; format: cell-based, human
Description: as §1

[5] = test system: CT-26-luc cell line; assay: MTT antiproliferative assay; format: cell-based, murine; details: 120 h incubation
[6] = test system: BxPc-3-luc2 tumor; assay: Pancreatic carcinoma mouse model, bioluminescent imaging; format: in vivo, SCID-bg mice; details: i.v. once a week, 4 treatments
Text: 5-6 weeks-old SCID mice were inoculated subcutaneously with 2×10^6 BxPC-3-luc cells.
Pancreatic tumors were induced by subcutaneous injection of the luciferase-transfected pancreas adenocarcinoma cells, BxPc-3-luc2, to SCID-bg mice. Tumor development and progression was validated by bioluminescent imaging. On the eighth day following tumor cells injection, a four-treatment cycle (intravenous route) was initiated (once a week).

[7] = for body weight variation over time: OXA 5 mg/kg, OXA-PAL-ACT 15 mg/kg i.v. once a week; for maximum tolerated dose: i.v., solution
[8] = test system: PC-3 cell line; assay: MTT cytotoxicity assay; details: for IC50 PC-3: 120 h treatment; for IC50: read-out: IC50 PC-3, 120 h incubation
Description: (§5) The in vitro experiments were performed in cell lines of lung cancer (A549), prostate cancer (DU145 and PC-3), pancreatic cancer (BxPC-3) and ovarian cancer (SKOV-3 and OVCAR-8). A549, BxPC-3 and OVCAR-8 cells were grown in RPMI medium supplemented with 10% fetal bovine serum (Gibco), 1% L-glutamine, 100 U/ml penicillin, 100 ug/ml streptomycin and 0.13% w/w gentamycin. PC-3 cells were cultured in DMEM plus 10% fetal bovine serum, 1% L-glutamine, 100 U/ml penicillin, 100 μg/ml streptomycin and 1% pyrovate. DU145 cells were grown in RPMI1640 medium supplemented with 10% fetal bovine serum, 100 U/ml penicillin, and 100 ug/ml streptomycin. SKOV-3 cells were cultured McCoy's 5A medium supplemented with 10% fetal bovine serum, 100 U/ml penicillin, and 100 ug/ml streptomycin. The cell lines were maintained at 37° C. under 5% CO2. […] The drugs were dissolved in DMSO and were added to the appropriate medium. Drug concentrations were chosen in a range that would never expose cells to more than 0.5% DMSO i.e. for 50 μg/ml maximal concentration; 0.5 mg of OXA-PAL-ACT was dissolved in 50 μl DMSO and then added to 10 ml cell medium.
as §4
(§6) The cells were treated continuously for 120 h.

[9] = test system: PC-3 LUC cell line; assay: MTT cytotoxicity assay; details: for IC50 PC-3 LUC: 120 h treatment; for IC50: read-out: IC50 PC-3-luc, 120 h incubation
Description: as §4, §6

[10] = test system: BxPC-3 cell line; assay: MTT cytotoxicity assay; details: for IC50 BXPC-3: 120 h treatment; for IC50: read-out: IC50 BxPC-3, 120 h incubation
Description: as §5, §4, §6

[11] = test system: OVCAR-8 cell line; assay: MTT cytotoxicity assay; details: for IC50 OVCAR-8: 120 h treatment; for IC50: read-out: IC50 OVCAR-8, 120 h incubation
Description: as §5, §4, §6

[12] = test system: SKOV-3 cell line; assay: MTT cytotoxicity assay; details: for IC50 SKOV-3: 120 h treatment; for IC50: read-out: IC50 SKOV-3, 120 h incubation
Description: as §5, §4, §6

[13] = test system: A549 cell line; assay: MTT cytotoxicity assay; format: cell-based; details: 120 h treatment
Description: A549, BxPC-3 and OVCAR-8 cells were grown in RPMI medium supplemented with 10% fetal bovine serum (Gibco), 1% L-glutamine, 100 U/ml penicillin, 100 ug/ml streptomycin and 0.13% w/w gentamycin. […] The cell lines were maintained at 37° C. under 5% CO2. All cell culture products were obtained from Biological Industries (Beit HaEmek, Israel). The drugs were dissolved in DMSO and were added to the appropriate medium. Drug concentrations were chosen in a range that would never expose cells to more than 0.5% DMSO i.e. for 50 μg/ml maximal concentration; 0.5 mg of OXA-PAL-ACT was dissolved in 50 μl DMSO and then added to 10 ml cell medium.
as §4

[14] = test system: HCT-15 cell line; assay: MTT cytotoxicity assay; format: cell-based; details: 120 h treatment
Description: as §4

[15] = test system: A498 cell line; assay: MTT cytotoxicity assay; format: cell-based; details: 120 h treatment
Description: as §4

[16] = test system: A375 cell line; assay: MTT cytotoxicity assay; format: cell-based; details: 120 h treatment
Description: as §4

[17] = Reduction potentials by cyclic voltammetry; format: physicochemical; details: versus Ag/AgCl
[18] = Log P determination, shake flask method; details: n-octanol and water
Description: The partition coefficient of the new Pt compounds was determined in n-octanol and water by shake flask method.

[19] = test system: HaCaT cell line; details: non-cancer human keratinocytes
Text: (§2) HaCaT cell line monolayer representing human keratinocytes, RASM line monolayer representing Rat Aortic Smooth Muscle cells.

[20] = test system: RASM (Rat Aortic Smooth Muscle cells); details: non-cancer Rat Aortic Smooth Muscle cells
Text: as §2

[21] = test system: SKOV-3 and SKOV-3-luc cells; assay: Whole-cell Pt accumulation (cellular uptake) by ICP-MS; format: cell-based, human; details: 24 h exposure, 5, 15, 25 μg/ml
Description: (§3) Following incubation, the drug-containing medium was removed, and cells were rinsed twice with cold PBS, trypsinized and were centrifuged into a pellet (4400 rpm, 5 min). 500 μl of nitric acid was added to cell pellets, and overnight incubated at 70° C. The samples were prepared by dilution using 0.1% SDS and 1% nitric acid lysis solution, and analyzed for Pt content by ICP-MS. DNA was isolated and purified from cell lines with the DNeasy Blood and Tissue Kit (Qiagen).
Cellular accumulation of platinum is a key step in cellular platinum drug pharmacology.

[22] = test system: SKOV-3 cells; assay: DNA platination by ICP-MS; format: cell-based, human; details: 24 h exposure, 25 μg/ml
Description: as §3

[23] = test system: SKOV-3 luc tumor; assay: Ovarian carcinoma mouse model, bioluminescent imaging; format: in vivo, SCID mice; details: from day 60; 15 mg/kg i.v. once a week, 4 treatments
Description: For induction of an ovarian carcinoma mouse model, 5-6 weeks-old severe combined immunodeficiency (SCID) mice, divided into 4 groups, were injected with 2×10^6 SKOV-3 luc cells directly into intraperitoneal cavity (i.p.). The cells were suspended in 100 μl PBS.
All treatments were given in an identical treatment regimen.

[24] = test system: HCT-116-luc2 tumor; assay: Colon cancer mouse model, bioluminescent imaging; format: in vivo, SCID-bg mice; details: 33 days from inoculation; 9 mg/kg OPA equivalent to 5 mg/kg OXA, i.v. every fourth day
Description: 5-6 weeks-old SCID mice were inoculated subcutaneously with 1×10^6 HCT-116-luc2 cells. 1 day following tumor inoculation, treatment was initiated. Treatment was administered once every fourth day by i.v. injection (tail), 4 treatments in total.
Results are presented as mean±SEM. […] In fact equivalent doses were […] since 9 mg/kg OPA is equivalent to 5 mg/kg OXA.

With O=C1[O][Pt]2([NH][C@@H]3CCCC[C@H]3[NH]2)[O]C1=O [Oxaliplatin, reference compound] as the compound, how does the “IC50 A2780” value [1] read?
The value was 0.31 µg/mL.

And the IC50 [1]?
Its IC50 is 780 ± 20 nM.

And the “IC50 A2780-cisR” value [2]?
The value was 1.63 ± 0.11 µg/mL.

And the IC50 [2]?
Its IC50 is 4100 ± 250 nM.

And the IC50 [3]?
Its IC50 is 62700 ± 2520 nM.

What about the IC50 [4] of the same compound?
Its IC50 is 2300 ± 1080 nM.

What about the IC50 [5] of the same compound?
The IC50 was 5600 ± 600 nM.

And the “pancreatic tumor growth inhibition” value [6]?
The value was “did not show any efficacy”.

And the “body weight variation over time” value [7]?
Its value is “marked weight reduction”.

What about the maximum tolerated dose [7] of the same compound?
The maximum tolerated dose was 5 mg/kg.

And the “IC50 PC-3” value [8]?
The value was 3.63 ± 0.15 µg/mL.

What about the IC50 [8] of the same compound?
Its IC50 is 9160 ± 370 nM.

What about the “IC50 PC-3 LUC” value [9] of the same compound?
The value was 11 ± 3.60 µg/mL.

And the IC50 [9]?
Its IC50 is 27700 ± 9050 nM.

What about the “IC50 BXPC-3” value [10] of the same compound?
Its value is 1.35 ± 0.35 µg/mL.

And the IC50 [10]?
The IC50 was 3380 ± 870 nM.

And the “IC50 OVCAR-8” value [11]?
Its value is 3.75 ± 1.77 µg/mL.

What about the IC50 [11] of the same compound?
The IC50 was 9440 ± 4440 nM.

And the “IC50 SKOV-3” value [12]?
Its value is 32.5 ± 3.54 µg/mL.

What about the IC50 [12] of the same compound?
Its IC50 is 58300 ± 6340 nM.

For CCCCCCCCCCCCCCCC(=O)[O][Pt]1([O]C(=O)CCC(=O)O)[O]C(=O)C(=O)[O]1.NC1CCCCC1N [OXA-PAL-SUCC], which IC50 [1] is on record?
The IC50 was 460 ± 10 nM.

What about the IC50 [2] of the same compound?
Its IC50 is 1900 ± 200 nM.

What about the “RF, resistance factor” value [2] of the same compound?
Its value is 4.13.

And the “IC50 A549” value [13]?
The value was 0.45 µg/mL.

What about the “IC50 HCT-15” value [14] of the same compound?
The value was 0.35 µg/mL.

And the “IC50 A498” value [15]?
Its value is 0.24 µg/mL.

And the “IC50 A375” value [16]?
The value was 0.19 µg/mL.

And the IC50 [5]?
Its IC50 is 4430 ± 930 nM.

What about the “Ep, reduction potential” value [17] of the same compound?
Its value is −0.60 ± 0.01 V.

And the “IC50 PC-3” value [8]?
The value was 0.35 ± 0.01 µg/mL.

What about the IC50 [8] of the same compound?
The IC50 was 450 ± 10 nM.

What about the “IC50 PC-3 LUC” value [9] of the same compound?
The value was 0.78 ± 0.88 µg/mL.

And the IC50 [9]?
Its IC50 is 1010 ± 1130 nM.

And the “IC50 BXPC-3” value [10]?
The value was 1.23 ± 1.18 µg/mL.

What about the IC50 [10] of the same compound?
The IC50 was 1590 ± 1520 nM.

And the “IC50 OVCAR-8” value [11]?
The value was 2.83 ± 0.38 µg/mL.

And the IC50 [11]?
Its IC50 is 3670 ± 490 nM.

And the “IC50 SKOV-3” value [12]?
The value was 20.67 ± 15.88 µg/mL.

What about the IC50 [12] of the same compound?
Its IC50 is 26800 ± 20600 nM.

What about the “Measured logP” value [18] of the same compound?
Its value is 2.07.

Which results are given for CCCCCCCCCCCCCCCC(=O)[O][Pt]12([O]C(C)=O)([NH]C3CCCCC3[NH]1)[O]C(=O)C(=O)[O]2 (centres unmarked) [OXA-PAL-ACT, oxaliplatin palmitate acetate]?
IC50 A2780 [1]: 0.26 µg/mL; IC50 [1]: 360 ± 10 nM; IC50 A2780-cisR [2]: 0.24 µg/mL; resistance factor ([2]; calculated from IC50 values of dose-response curves, A2780-cisR vs A2780 (FIG. 10)): 1; IC50 [2]: 340 ± 10 nM; RF, resistance factor [2]: 0.93; IC50 A549 [13]: 0.34 µg/mL; IC50 HCT-15 [14]: 0.43 µg/mL; IC50 A498 [15]: 0.20 µg/mL; IC50 A375 [16]: 0.16 µg/mL; IC50 [3]: 310 ± 90 nM; IC50 [4]: 370 ± 20 nM; IC50 [5]: 620 ± 240 nM; therapeutic ratio in HaCaT [19]: higher than 1.8; therapeutic ratio in RASM [20]: > 2; cellular accumulation of platinum [21]: substantially higher compared to that of oxaliplatin; nucleus DNA platination [22]: higher DNA-platination; tumor growth (bioluminescence) efficacy [23]: more efficient that OXA; pancreatic tumor growth inhibition [6]: significantly more efficient in pancreatic tumor growth inhibition compared to OXA and the control; tumor growth inhibition [24]: no significant efficacy difference; Ep, reduction potential [17]: −0.54 ± 0.02 V; body weight variation over time [7]: did not reduce the animal weight; maximum tolerated dose [7]: 15 mg/kg; IC50 PC-3 [8]: 0.25 ± 0.01 µg/mL; IC50 [8]: 350 ± 10 nM; IC50 PC-3 LUC [9]: 0.33 ± 0.08 µg/mL; IC50 [9]: 460 ± 110 nM; IC50 BXPC-3 [10]: 0.25 ± 0.01 µg/mL; IC50 [10]: 350 ± 10 nM; IC50 OVCAR-8 [11]: 0.33 ± 0.03 µg/mL; IC50 [11]: 460 ± 30 nM; IC50 SKOV-3 [12]: 0.39 ± 0.02 µg/mL; IC50 [12]: 540 ± 30 nM; Measured logP [18]: 2.06; observed Log P ([18]; n=5): 2.76±0.14

For CCCCCCCCCCCCCCCC(=O)[O][Pt]1([O]C(=O)CCCCCCCCCCCCCCC)[O]C(=O)C(=O)[O]1.NC1CCCCC1N [OXADP, oxaliplatin dipalmitate], which IC50 [1] is on record?
Its IC50 is 7500 ± 500 nM.

And the IC50 [2]?
Its IC50 is greater than 55000 nM.

What about the “RF, resistance factor” value [2] of the same compound?
Its value is greater than 7.3.

And the IC50 [5]?
Its IC50 is greater than 55000 nM.

What about the “Ep, reduction potential” value [17] of the same compound?
The value was −0.53 ± 0.02 V.

And the “IC50 PC-3” value [8]?
Its value is 2.20 ± 1.21 µg/mL.

What about the IC50 [8] of the same compound?
The IC50 was 2420 ± 1330 nM.

And the “IC50 PC-3 LUC” value [9]?
The value was 21.35 ± 19.30 µg/mL.

What about the IC50 [9] of the same compound?
The IC50 was 23500 ± 21200 nM.

What about the “IC50 BXPC-3” value [10] of the same compound?
The value was 24.07 ± 12.96 µg/mL.

And the IC50 [10]?
The IC50 was 26500 ± 14300 nM.

And the “IC50 OVCAR-8” value [11]?
The value was 16 ± 3.12 µg/mL.

And the IC50 [11]?
The IC50 was 17600 ± 3430 nM.

What about the “IC50 SKOV-3” value [12] of the same compound?
The value was “N.D* (N.D—Not Determined (The IC50 value is higher than maximal tested concentration-50 μg/ml))”.

And the IC50 [12]?
Its IC50 is greater than 55000 nM.

And the “Measured logP” value [18]?
Its value is 3.49.

With N.N.[Cl][Pt][Cl] [Cisplatin, cisplatin, reference compound] as the compound, how does the IC50 [1] read?
The IC50 was 940 ± 40 nM.

What about the IC50 [2] of the same compound?
Its IC50 is 14600 ± 1440 nM.

What about the “RF, resistance factor” value [2] of the same compound?
The value was 15.53.

And the “IC50 A549” value [13]?
The value was 8.35 µg/mL.

And the “IC50 HCT-15” value [14]?
Its value is 11.32 µg/mL.

And the “IC50 A498” value [15]?
Its value is 17.53 µg/mL.

What about the “IC50 A375” value [16] of the same compound?
The value was 3.75 ± 1.77 µg/mL.

— US10239903B2, “Pt (IV) derivatives and nanocarriers comprising them” (Yissum Research Development Company of the Hebrew …, priority 2014, dated 2019)
